For assay [1], the target named is T1, proteasome in Molt-4 cells (human leukemia) (Homo sapiens, UniProt P20618+P28074).
T1 sequence (P28074 60-263): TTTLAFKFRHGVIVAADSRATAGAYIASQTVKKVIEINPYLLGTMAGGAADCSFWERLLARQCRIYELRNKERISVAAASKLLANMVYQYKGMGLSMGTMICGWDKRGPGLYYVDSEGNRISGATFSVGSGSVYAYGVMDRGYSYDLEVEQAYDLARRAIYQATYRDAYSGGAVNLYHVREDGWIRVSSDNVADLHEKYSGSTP
T1 sequence (P20618 29-241): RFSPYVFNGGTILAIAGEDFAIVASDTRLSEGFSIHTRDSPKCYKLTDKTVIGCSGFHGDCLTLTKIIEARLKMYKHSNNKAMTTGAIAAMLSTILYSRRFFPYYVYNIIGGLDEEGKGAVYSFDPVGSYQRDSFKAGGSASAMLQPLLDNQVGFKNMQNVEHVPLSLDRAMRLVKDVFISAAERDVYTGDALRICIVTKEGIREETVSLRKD
Type of assay: cell-based. Conditions: assay of Example E, inhibition of MOLT4; read-out: MOLT4 (EC50). Summed up: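 Intact Molt-4 cells (6×10^6 cells/mL) in HEPES-buffered saline were preincubated with inhibitor 15 min at 37 °C, then given cell-permeable MeOSuc-FLF-AFC at 25 μM final.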

For assay [2], the target named is T2, 20S Human Erythrocyte Proteasome (HEP) (Homo sapiens, UniProt P20618+P28074).
T2 construct: 20S Human Erythrocyte Proteasome (HEP), purchased from Immatics Biotechnologies Inc; purchased Immatics Biotechnologies Inc., Tübingen, Germany; host or cells: human erythrocytes (natural source)
The assay is described as follows: Chymotrypsin-like activity of 20S Human Erythrocyte Proteasome (HEP), IC50 determination. Conditions: assay of Example C, inhibition of HEP. Type of assay: biochemical. Summed up: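 20S proteasome at 0.2 μg/mL (about 0.6 nM catalytic sites) in 20 mM Tris with 0.04% SDS, preincubated 15 min at 37° C with inhibitor before Suc-LLVY-AMC (100 μM final). AMC fluorescence read in the linear range; triplicates, IC50 from concentration series.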

Structures are written as SMILES.

A word on the EC50: it is the concentration needed to bring the measured effect to its halfway point. Usually IC50 stands for the concentration needed to halve the response being measured. Read a low IC50 as greater potency. `CC(C)C[C@H](NC(=O)[C@H](CCCNC(=N)N[N+](=O)[O-])NC(=O)c1ccc(Br)cc1)B1O[C@@H]2C[C@@H]3C[C@@H](C3(C)C)[C@]2(C)O1` [D.3.24, 4-Bromobenzamide,N-[(1S)-1-[[[(1R)-1-[(3aS,4S,6S,7aR)-hexahydro-3a,5,5-trimethyl-4,6-methano-1,3,2-benzodioxaborol-2-yl]-3-methylbutyl]amino]carbonyl]-4-[[imino(nitroamino)methyl]amino]butyl]]: the EC50 in assay [1] was < 200 nM. In addition, the IC50 in assay [2] is < 10 nM.
`C/C(=C\c1ccccc1)C(=O)N[C@@H](CCCNC(=N)N[N+](=O)[O-])C(=O)N[C@@H](CC(C)C)B1O[C@@H]2C[C@@H]3C[C@@H](C3(C)C)[C@]2(C)O1` [D.3.26, (E)-2-Methyl-3-phenyl-acrylamide,N-[(1S)-1-[[[(1R)-1-[(3aS,4S,6S,7aR)-hexahydro-3a,5,5-trimethyl-4,6-methano-1,3,2-benzodioxaborol-2-yl]-3-methylbutyl]amino]carbonyl]-4-[[imino(nitroamino)methyl]amino]butyl]]: the EC50 in assay [1] was < 200 nM. Moreover, the 50% inhibitory concentration (IC50) in assay [2] was < 10 nM.
For `CC(C)C[C@H](NC(=O)[C@H](CCCNC(=N)N[N+](=O)[O-])NC(=O)COc1ccc2ccccc2c1)B1O[C@@H]2C[C@@H]3C[C@@H](C3(C)C)[C@]2(C)O1` [D.3.27, 2-[(Naphthalen-2-yl)oxy]acetamide,N-[(1S)-1-[[[(1R)-1-[(3aS,4S,6S,7aR)-hexahydro-3a,5,5-trimethyl-4,6-methano-1,3,2-benzodioxaborol-2-yl]-3-methylbutyl]amino]carbonyl]-4-[[imino(nitroamino)methyl]amino]butyl]], in assay [1], the EC50 was < 200 nM. The IC50 in assay [2] was < 10 nM.
In the case of `CC(C)C[C@H](NC(=O)[C@H](CCCNC(=N)N[N+](=O)[O-])NC(=O)Cc1ccccc1Cl)B1O[C@@H]2C[C@@H]3C[C@@H](C3(C)C)[C@]2(C)O1` [D.3.29, 2-(2-Chlorophenyl)acetamide,N-[(1S)-1-[[[(1R)-1-[(3aS,4S,6S,7aR)-hexahydro-3a,5,5-trimethyl-4,6-methano-1,3,2-benzodioxaborol-2-yl]-3-methylbutyl]amino]carbonyl]-4-[[imino(nitroamino)methyl]amino]butyl]], the concentration giving a half-maximal response (EC50) in assay [1] is < 200 nM. Besides, the half-inhibitory concentration (IC50) in assay [2] is < 10 nM.
In the same order, the values of `COc1ccccc1/C=C\C(=O)N[C@@H](CCCNC(=N)N[N+](=O)[O-])C(=O)N[C@@H](CC(C)C)B1O[C@@H]2C[C@@H]3C[C@@H](C3(C)C)[C@]2(C)O1` [D.3.31, cis-3-(2-Methoxyphenyl)acrylamide,N-[(1S)-1-[[[(1R)-1-[(3aS,4S,6S,7aR)-hexahydro-3a,5,5-trimethyl-4,6-methano-1,3,2-benzodioxaborol-2-yl]-3-methylbutyl]amino]carbonyl]-4-[[imino(nitroamino)methyl]amino]butyl]] are 200 to 2000 nM and < 100 nM.
On to `CC(C)C[C@H](NC(=O)[C@H](CCCNC(=N)N[N+](=O)[O-])NC(=O)/C=C/c1ccccc1Br)B1O[C@@H]2C[C@@H]3C[C@@H](C3(C)C)[C@]2(C)O1` [D.3.34], for which, in assay [1], the EC50 is < 200 nM. Moreover, in assay [2], the half-maximal inhibitory concentration (IC50) was < 10 nM.
`Cc1ccc(CCCC(=O)N[C@@H](CCCNC(=N)N[N+](=O)[O-])C(=O)N[C@@H](CC(C)C)B2O[C@@H]3C[C@@H]4C[C@@H](C4(C)C)[C@]3(C)O2)cc1` [D.3.36, 4-(4-methylphenyl)butanamide,N-[(1S)-1-[[[(1R)-1-[(3aS,4S,6S,7aR)-hexahydro-3a,5,5-trimethyl-4,6-methano-1,3,2-benzodioxaborol-2-yl]-3-methylbutyl]amino]carbonyl]-4-[[imino(nitroamino)methyl]amino]butyl]]: the EC50 in assay [1] is < 200 nM. In assay [2], the concentration for half-maximal inhibition (IC50) was < 10 nM.
With `CC(C)C[C@H](NC(=O)[C@H](CCCNC(=N)N[N+](=O)[O-])NC(=O)CSc1ccc2ccccc2c1)B1O[C@@H]2C[C@@H]3C[C@@H](C3(C)C)[C@]2(C)O1` [D.3.37], the EC50 in assay [1] is < 200 nM. In addition, the half-maximal inhibitory concentration (IC50) in assay [2] is < 10 nM.
For the compound `CC(C)CCCC(=O)N[C@@H](CCCNC(=N)N[N+](=O)[O-])C(=O)N[C@@H](CC(C)C)B1O[C@@H]2C[C@@H]3C[C@@H](C3(C)C)[C@]2(C)O1` [D.3.38], the concentration giving a half-maximal response (EC50) in assay [1] is < 200 nM. Moreover, the IC50 in assay [2] was < 10 nM.
In the same order, the values of `CC(C)C[C@H](NC(=O)[C@H](CCCNC(=N)N[N+](=O)[O-])NC(=O)CCc1cccs1)B1O[C@@H]2C[C@@H]3C[C@@H](C3(C)C)[C@]2(C)O1` [D.3.39, 3-Thiophen-2-yl-propanamide,N-[(1S)-1-[[[(1R)-1-[(3aS,4S,6S,7aR)-hexahydro-3a,5,5-trimethyl-4,6-methano-1,3,2-benzodioxaborol-2-yl]-3-methylbutyl]amino]carbonyl]-4-[[imino(nitroamino)methyl]amino]butyl]] are < 200 nM and < 10 nM.
Consider `CC(C)C[C@H](NC(=O)[C@H](CCCNC(=N)N[N+](=O)[O-])NC(=O)CC1CCCCCC1)B1O[C@@H]2C[C@@H]3C[C@@H](C3(C)C)[C@]2(C)O1` [D.3.43], for which the EC50 in assay [1] was < 200 nM. The IC50 in assay [2] is < 10 nM.
As for `CC(C)C[C@H](NC(=O)[C@H](CCCNC(=N)N[N+](=O)[O-])NC(=O)CCc1ccccc1)B1O[C@@H]2C[C@@H]3C[C@@H](C3(C)C)[C@]2(C)O1` [D.3.49, 3-Phenylpropanamide,N-[(1S)-1-[[[(1R)-1-[(3aS,4S,6S,7aR)-hexahydro-3a,5,5-trimethyl-4,6-methano-1,3,2-benzodioxaborol-2-yl]-3-methylbutyl]amino]carbonyl]-4-[[imino(nitroamino)methyl]amino]butyl]], the EC50 in assay [1] was in the range of 200 to 2000 nM. In addition, the IC50 in assay [2] is < 10 nM.
In the case of `COc1ccc(CCCC(=O)N[C@@H](CCCNC(=N)N[N+](=O)[O-])C(=O)N[C@@H](CC(C)C)B2O[C@@H]3C[C@@H]4C[C@@H](C4(C)C)[C@]3(C)O2)cc1` [D.3.50], in assay [1], the EC50 was < 200 nM. The concentration for half-maximal inhibition (IC50) in assay [2] is < 10 nM.
`CC(C)C[C@H](NC(=O)[C@H](CCCNC(=N)N[N+](=O)[O-])NC(=O)COc1ccc(C(C)C)cc1)B1O[C@@H]2C[C@@H]3C[C@@H](C3(C)C)[C@]2(C)O1` [D.3.54]: the concentration for a half-maximal effect (EC50) in assay [1] was < 200 nM. For the same compound, the concentration for half-maximal inhibition (IC50) in assay [2] is < 10 nM.
On the same counts, the results for `CCc1ccc(OCC(=O)N[C@@H](CCCNC(=N)N[N+](=O)[O-])C(=O)N[C@@H](CC(C)C)B2O[C@@H]3C[C@@H]4C[C@@H](C4(C)C)[C@]3(C)O2)cc1` [D.3.55] are < 200 nM and < 10 nM.
Turning to `Cc1cccc(/C=C/C(=O)N[C@@H](CCCNC(=N)N[N+](=O)[O-])C(=O)N[C@@H](CC(C)C)B2O[C@@H]3C[C@@H]4C[C@@H](C4(C)C)[C@]3(C)O2)c1` [D.3.57, 3-(3-Methylphenyl)acrylamide,N-[(1S)-1-[[[(1R)-1-[(3aS,4S,6S,7aR)-hexahydro-3a,5,5-trimethyl-4,6-methano-1,3,2-benzodioxaborol-2-yl]-3-methylbutyl]amino]carbonyl]-4-[[imino(nitroamino)methyl]amino]butyl]], the EC50 in assay [1] is < 200 nM. Besides, the half-maximal inhibitory concentration (IC50) in assay [2] was < 10 nM.
For `CC(C)C[C@H](NC(=O)[C@H](CCCNC(=N)N[N+](=O)[O-])NC(=O)CC12CC3CC(CC(C3)C1)C2)B1O[C@@H]2C[C@@H]3C[C@@H](C3(C)C)[C@]2(C)O1` [D.3.58, 2-Adamantan-1-ylacetamide,N-[(1S)-1-[[[(1R)-1-[(3aS,4S,6S,7aR)-hexahydro-3a,5,5-trimethyl-4,6-methano-1,3,2-benzodioxaborol-2-yl]-3-methylbutyl]amino]carbonyl]-4-[[imino(nitroamino)methyl]amino]butyl]], in assay [1], the concentration for a half-maximal effect (EC50) was < 200 nM. For the same compound, the IC50 in assay [2] is < 10 nM.
With `Cc1ccc(/C=C/C(=O)N[C@@H](CCCNC(=N)N[N+](=O)[O-])C(=O)N[C@@H](CC(C)C)B2O[C@@H]3C[C@@H]4C[C@@H](C4(C)C)[C@]3(C)O2)cc1` [D.3.62, 3-(4-Methylphenyl)acrylamide,N-[(1S)-1-[[[(1R)-1-[(3aS,4S,6S,7aR)-hexahydro-3a,5,5-trimethyl-4,6-methano-1,3,2-benzodioxaborol-2-yl]-3-methylbutyl]amino]carbonyl]-4-[[imino(nitroamino)methyl]amino]butyl]], the half-maximal effective concentration (EC50) in assay [1] is < 200 nM. Also, in assay [2], the IC50 was < 10 nM.
In the same order, the values of `CC(C)C[C@H](NC(=O)[C@H](CCCNC(=N)N[N+](=O)[O-])NC(=O)c1ccc(-n2cccc2)cc1)B1O[C@@H]2C[C@@H]3C[C@@H](C3(C)C)[C@]2(C)O1` [D.3.64, 4-Pyrrol-1-yl-benzamide,N-[(1S)-1-[[[(1R)-1-[(3aS,4S,6S,7aR)-hexahydro-3a,5,5-trimethyl-4,6-methano-1,3,2-benzodioxaborol-2-yl]-3-methylbutyl]amino]carbonyl]-4-[[imino(nitroamino)methyl]amino]butyl]] are < 200 nM and < 10 nM.
